#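 Tested at 5 concentrations; 48 h exposure; 96-well plates; endpoints linearly interpolated, else capped at highest concentration. GI50 = concentration required for 50% inhibition of growth. TGI: total growth inhibition.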
# Tests used:
# Assay in all cases: NCI-60 cell line screen, 48 h
# 786-0 renal = tested on: 786-0 renal
# A498 renal = tested on: A498 renal
# A549 NSCLC = tested on: A549 NSCLC
# ACHN renal = tested on: ACHN renal
# BT-549 breast = tested on: BT-549 breast
# CAKI-1 renal = tested on: CAKI-1 renal
# CCRF-CEM leukemia = tested on: CCRF-CEM leukemia
# COLO 205 colon = tested on: COLO 205 colon
# DU-145 prostate = tested on: DU-145 prostate
# EKVX NSCLC = tested on: EKVX NSCLC
# HCC-2998 colon = tested on: HCC-2998 colon
# HCT-116 colon = tested on: HCT-116 colon
# HCT-15 colon = tested on: HCT-15 colon
# HL-60(TB) leukemia = tested on: HL-60(TB) leukemia
# HOP-62 NSCLC = tested on: HOP-62 NSCLC
# HOP-92 NSCLC = tested on: HOP-92 NSCLC
# HS 578T breast = tested on: HS 578T breast
# HT29 colon = tested on: HT29 colon
# IGROV1 ovarian = tested on: IGROV1 ovarian
# K-562 leukemia = tested on: K-562 leukemia
# KM12 colon = tested on: KM12 colon
# LOX IMVI melanoma = tested on: LOX IMVI melanoma
# M14 melanoma = tested on: M14 melanoma
# MALME-3M melanoma = tested on: MALME-3M melanoma
# MCF7 breast = tested on: MCF7 breast
# MDA-MB-231 breast = tested on: MDA-MB-231 breast
# MDA-MB-435 = tested on: MDA-MB-435
# MDA-MB-468 breast = tested on: MDA-MB-468 breast
# MOLT-4 leukemia = tested on: MOLT-4 leukemia
# NCI-H226 lung = tested on: NCI-H226 lung
# NCI-H23 lung = tested on: NCI-H23 lung
# NCI-H460 lung = tested on: NCI-H460 lung
# NCI-H522 lung = tested on: NCI-H522 lung
# OVCAR-3 ovarian = tested on: OVCAR-3 ovarian
# OVCAR-4 ovarian = tested on: OVCAR-4 ovarian
# OVCAR-5 ovarian = tested on: OVCAR-5 ovarian
# OVCAR-8 ovarian = tested on: OVCAR-8 ovarian
# PC-3 prostate = tested on: PC-3 prostate
# RPMI-8226 leukemia = tested on: RPMI-8226 leukemia
# RXF 393 renal = tested on: RXF 393 renal
# SF-268 CNS = tested on: SF-268 CNS
# SF-295 CNS = tested on: SF-295 CNS
# SF-539 CNS = tested on: SF-539 CNS
# SK-MEL-2 melanoma = tested on: SK-MEL-2 melanoma
# SK-MEL-28 melanoma = tested on: SK-MEL-28 melanoma
# SK-MEL-5 melanoma = tested on: SK-MEL-5 melanoma
# SK-OV-3 ovarian = tested on: SK-OV-3 ovarian
# SN12C renal = tested on: SN12C renal
# SNB-19 CNS = tested on: SNB-19 CNS
# SNB-75 CNS = tested on: SNB-75 CNS
# SR leukemia = tested on: SR leukemia
# SW-620 colon = tested on: SW-620 colon
# T-47D breast = tested on: T-47D breast
# TK-10 renal = tested on: TK-10 renal
# U251 CNS = tested on: U251 CNS
# UACC-257 melanoma = tested on: UACC-257 melanoma
# UACC-62 melanoma = tested on: UACC-62 melanoma
# UO-31 renal = tested on: UO-31 renal
smiles,measurement,setting,value
COc1ccccc1[C@H]1C(C(=O)c2ccc(Cl)cc2)C2(N[C@@H]1c1ccccc1)C(=O)Nc1ccc(Cl)cc12 (stereo not given in full),GI50,786-0 renal,8.96 µM
same,TGI,786-0 renal,35.5 µM
same,GI50,A498 renal,15.3 µM
same,TGI,A498 renal,52.1 µM
same,GI50,A549 NSCLC,2.76 µM
same,TGI,A549 NSCLC,> 57.5 µM
same,GI50,ACHN renal,6.62 µM
same,TGI,ACHN renal,53.7 µM
same,GI50,BT-549 breast,1.35 µM
same,TGI,BT-549 breast,18.6 µM
same,GI50,CAKI-1 renal,1.68 µM
same,TGI,CAKI-1 renal,> 57.5 µM
same,GI50,CCRF-CEM leukemia,2.14 µM
same,TGI,CCRF-CEM leukemia,> 57.5 µM
same,GI50,COLO 205 colon,9.92 µM
same,TGI,COLO 205 colon,21.1 µM
same,GI50,DU-145 prostate,2.56 µM
same,TGI,DU-145 prostate,> 57.5 µM
same,GI50,EKVX NSCLC,8.12 µM
same,TGI,EKVX NSCLC,> 57.5 µM
same,GI50,HCC-2998 colon,9.77 µM
same,TGI,HCC-2998 colon,43.8 µM
same,GI50,HCT-116 colon,2.13 µM
same,TGI,HCT-116 colon,> 57.5 µM
same,GI50,HCT-15 colon,6.98 µM
same,TGI,HCT-15 colon,> 57.5 µM
same,GI50,HL-60(TB) leukemia,1.77 µM
same,TGI,HL-60(TB) leukemia,25.2 µM
same,GI50,HOP-62 NSCLC,9.31 µM
same,TGI,HOP-62 NSCLC,> 57.5 µM
same,GI50,HOP-92 NSCLC,4.52 µM
same,TGI,HOP-92 NSCLC,37.1 µM
same,GI50,HS 578T breast,2.56 µM
same,TGI,HS 578T breast,34.2 µM
same,GI50,HT29 colon,1.73 µM
same,TGI,HT29 colon,7.91 µM
same,GI50,IGROV1 ovarian,9.15 µM
same,TGI,IGROV1 ovarian,> 57.5 µM
same,GI50,K-562 leukemia,1.78 µM
same,TGI,K-562 leukemia,> 57.5 µM
same,GI50,KM12 colon,8.36 µM
same,TGI,KM12 colon,> 57.5 µM
same,GI50,LOX IMVI melanoma,1.72 µM
same,TGI,LOX IMVI melanoma,21.2 µM
same,GI50,M14 melanoma,3.55 µM
same,TGI,M14 melanoma,> 57.5 µM
same,GI50,MALME-3M melanoma,7.44 µM
same,TGI,MALME-3M melanoma,21.1 µM
same,GI50,MCF7 breast,2 µM
same,TGI,MCF7 breast,> 57.5 µM
same,GI50,MDA-MB-231 breast,1.36 µM
same,TGI,MDA-MB-231 breast,12.5 µM
same,GI50,MDA-MB-435,1.82 µM
same,TGI,MDA-MB-435,8.94 µM
same,GI50,MDA-MB-468 breast,1.38 µM
same,TGI,MDA-MB-468 breast,16.2 µM
same,GI50,MOLT-4 leukemia,1.92 µM
same,TGI,MOLT-4 leukemia,> 57.5 µM
same,GI50,NCI-H226 lung,8.32 µM
same,TGI,NCI-H226 lung,> 57.5 µM
same,GI50,NCI-H23 lung,8.68 µM
same,TGI,NCI-H23 lung,> 57.5 µM
same,GI50,NCI-H460 lung,2.32 µM
same,GI50,NCI-H522 lung,1.3 µM
same,TGI,NCI-H522 lung,5.51 µM
same,GI50,OVCAR-3 ovarian,2.76 µM
same,TGI,OVCAR-3 ovarian,> 57.5 µM
same,GI50,OVCAR-4 ovarian,10.4 µM
same,TGI,OVCAR-4 ovarian,> 57.5 µM
same,GI50,OVCAR-5 ovarian,8.44 µM
same,TGI,OVCAR-5 ovarian,> 57.5 µM
same,GI50,OVCAR-8 ovarian,7.52 µM
same,TGI,OVCAR-8 ovarian,> 57.5 µM
same,GI50,PC-3 prostate,1.46 µM
same,TGI,PC-3 prostate,> 57.5 µM
same,GI50,RPMI-8226 leukemia,5.91 µM
same,TGI,RPMI-8226 leukemia,50.7 µM
same,GI50,RXF 393 renal,1.66 µM
same,TGI,RXF 393 renal,13.8 µM
same,GI50,SF-268 CNS,9.79 µM
same,TGI,SF-268 CNS,> 57.5 µM
same,GI50,SF-295 CNS,3.43 µM
same,TGI,SF-295 CNS,> 57.5 µM
same,GI50,SF-539 CNS,8.51 µM
same,TGI,SF-539 CNS,30.3 µM
same,GI50,SK-MEL-2 melanoma,4.08 µM
same,TGI,SK-MEL-2 melanoma,13.6 µM
same,GI50,SK-MEL-28 melanoma,16.7 µM
same,TGI,SK-MEL-28 melanoma,> 57.5 µM
same,GI50,SK-MEL-5 melanoma,2.69 µM
same,TGI,SK-MEL-5 melanoma,10.6 µM
same,GI50,SK-OV-3 ovarian,5.17 µM
same,TGI,SK-OV-3 ovarian,> 57.5 µM
same,GI50,SN12C renal,2.83 µM
same,TGI,SN12C renal,13.5 µM
same,GI50,SNB-19 CNS,14 µM
same,TGI,SNB-19 CNS,> 57.5 µM
same,GI50,SNB-75 CNS,2.27 µM
same,TGI,SNB-75 CNS,> 57.5 µM
same,GI50,SR leukemia,1.86 µM
same,TGI,SR leukemia,26.6 µM
same,GI50,SW-620 colon,4.28 µM
same,TGI,SW-620 colon,> 57.5 µM
same,GI50,T-47D breast,4.61 µM
same,TGI,T-47D breast,> 57.5 µM
same,GI50,TK-10 renal,15.8 µM
same,TGI,TK-10 renal,> 57.5 µM
same,GI50,U251 CNS,2.86 µM
same,TGI,U251 CNS,> 57.5 µM
same,GI50,UACC-257 melanoma,4.86 µM
same,TGI,UACC-257 melanoma,> 57.5 µM
same,GI50,UACC-62 melanoma,1.72 µM
same,TGI,UACC-62 melanoma,8.69 µM
same,GI50,UO-31 renal,2.26 µM
same,TGI,UO-31 renal,> 57.5 µM

# From PubChem BioAssay (NCI)
